“Also recorded” adds a separate entry of the source.
Assays:
Type in all cases: cell-based
[1] = test system: AP-1 transcriptional activity; test: AP-1 firefly luciferase reporter assay, TNFα-stimulated HeLa cells; details: 500 μM, TNFα 10 ng/ml
Method: HeLa cells were transiently transfected by AP-1 firefly luciferase reporter and renilla luciferase reference. HeLa control cells were pre-treated with diluent (0.5%), ibuprofen (500 μM) or sulindac (500 μM) for 1 h and stimulated for 1 h with 10 ng/ml TNFα. After removal of TNFα, cells were incubated for 4 h with pharmacological treatment. The AP-1 transcriptional activity in cells treated with ibuprofen+TNFα and sulindac +TNFα was expressed in percent of diluent+TNFα. Results of three independent experiments, means±SEM. Unilateral paired t test: ** p<0.01. To assay the transcriptional activity of AP-1, pAP1Luc, a luciferase reporter plasmid containing five sequential AP-1 binding sites upstream of a minimum promoter element, was used. […] To normalize transfection efficiency, a renilla luciferase reporter construct (pRL-TK, Promega) was co-transfected with each of the firefly luciferase constructs. To induced AP-1 activity, cells were exposed to TNFα (10 ng/mL) for 1 hour. Cells were pre- and treated with sulindac, ibuprofen or vehicule control one hour before and four hours after this induction.

IκB = test: Western blot of cytosolic IκB after TNFα; details: HeLa control cells; 500 μM 1 h pre-treatment; TNFα 10 ng/ml 30 min
Method: HeLa control cells were pre-treated with diluent (0.5%) or sulindac (500 μM) for 1 h and stimulated or not with 10 ng/ml TNFα for 30 min. Nuclear and cytosolic fractions were obtained by differential centrifugation. A. Analysis by western blot of cytosolic IKb quantity. The Iκb quantity was expressed in percent of control. […] B. Analysis by western blot of nuclear p65 quantity. Nuclear p65 quantity was expressed in percent of diluents+TNFα.
Nuclear and cytosolic fraction was obtained by differential centrifugation. Briefly, cells were lyses in buffer C (10 mM Hepes, 60 mM KCl, 1 mM EDTA, 7.8% NP40, 100 mM DTT, pH 7.6). After centrifugation, nucleus pellet were lyses in buffer N (27 mM Tris, 566 mM NaCl, 2 mM MgCl2, 1.3 mM EDTA, pH 8). Aliquots of fraction (30 μg protein) were separated by SDS-PAGE and transferred on PVDF membrane. The western blots were probed with mouse monoclonal antibodies specific for IκB or p65 (Santa-Cruz) 2 h at room temperature.

CFTR = CFTR (Homo sapiens, UniProt P13569); test: CFTR maturation by Western blot of membrane extracts; design: expressed in transfected cells; details: for Ratio CFTR C/C + B (%): HeLa CFTR WT, Ctr. 65.1
CFTR, sequence (P13569 whole entry): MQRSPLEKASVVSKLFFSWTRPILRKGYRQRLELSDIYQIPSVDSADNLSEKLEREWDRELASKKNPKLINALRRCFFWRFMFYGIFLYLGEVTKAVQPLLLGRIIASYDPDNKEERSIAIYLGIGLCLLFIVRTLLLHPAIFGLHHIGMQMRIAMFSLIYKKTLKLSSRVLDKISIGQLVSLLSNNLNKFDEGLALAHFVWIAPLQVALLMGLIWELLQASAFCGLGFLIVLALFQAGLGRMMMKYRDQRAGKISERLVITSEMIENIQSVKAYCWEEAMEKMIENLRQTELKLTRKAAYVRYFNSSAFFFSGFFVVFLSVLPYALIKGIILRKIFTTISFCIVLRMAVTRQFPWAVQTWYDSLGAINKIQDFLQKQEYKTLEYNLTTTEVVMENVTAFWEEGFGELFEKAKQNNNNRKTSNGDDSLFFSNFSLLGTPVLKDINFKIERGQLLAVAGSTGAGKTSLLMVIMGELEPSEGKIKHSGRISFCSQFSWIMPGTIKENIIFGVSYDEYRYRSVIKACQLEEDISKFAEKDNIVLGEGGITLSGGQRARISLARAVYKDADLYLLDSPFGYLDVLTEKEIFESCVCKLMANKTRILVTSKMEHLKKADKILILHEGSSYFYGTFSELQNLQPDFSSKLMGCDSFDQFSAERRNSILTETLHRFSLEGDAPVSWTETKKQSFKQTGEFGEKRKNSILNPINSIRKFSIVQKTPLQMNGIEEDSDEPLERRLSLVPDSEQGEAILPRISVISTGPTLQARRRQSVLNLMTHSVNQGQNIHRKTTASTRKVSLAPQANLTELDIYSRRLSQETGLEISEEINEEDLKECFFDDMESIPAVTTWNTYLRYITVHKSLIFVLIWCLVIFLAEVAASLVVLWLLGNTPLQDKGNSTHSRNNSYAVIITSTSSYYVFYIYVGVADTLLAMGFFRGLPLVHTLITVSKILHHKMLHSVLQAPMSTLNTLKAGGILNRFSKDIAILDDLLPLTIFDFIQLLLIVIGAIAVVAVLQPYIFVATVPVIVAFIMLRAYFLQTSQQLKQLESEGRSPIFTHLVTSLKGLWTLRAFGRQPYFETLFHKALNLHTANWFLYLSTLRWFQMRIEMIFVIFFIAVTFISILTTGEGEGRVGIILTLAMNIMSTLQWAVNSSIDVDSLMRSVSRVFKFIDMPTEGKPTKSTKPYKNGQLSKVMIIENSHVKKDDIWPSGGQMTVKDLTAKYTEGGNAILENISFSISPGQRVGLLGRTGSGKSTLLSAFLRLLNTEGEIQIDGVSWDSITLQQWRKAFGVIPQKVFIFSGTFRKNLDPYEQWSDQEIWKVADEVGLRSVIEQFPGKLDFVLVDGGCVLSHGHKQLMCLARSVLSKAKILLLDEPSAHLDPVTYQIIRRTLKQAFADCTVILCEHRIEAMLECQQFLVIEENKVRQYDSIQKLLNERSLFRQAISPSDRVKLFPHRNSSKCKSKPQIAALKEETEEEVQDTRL
Method: B. Chloride activity in HeLa Wt cells was measured by MQAE assay, after 3 h of treatment by NSAID (500 μM) or diluent. CFTR activity was expressed in rate of UFA/sec, calculated by difference between ((Ft−F0)/t) with CFTR induction and ((Ft−F0)/t) without CFTR induction. […] C. Primary culture of human nasal epithelial cell (HNEC) grown on Snapwell filters (air-liquid interface) were exposed basolaterally to sulindac (500 μM) or vehicle for 2 h and immediately mounted into a voltage-clamp system to bioelectric measurements. Short circuit current was measured with addition of amiloride to evaluated amiloride sensitive transport or with forskolin and IBMX for induced cAMP-dependent Cl secretion.
To study the CFTR protein present at the cell membrane, a protocol of purification by differential centrifugations was used. CFTR wt and delta F508 HeLa cells (2×10^5 cells/cm^2) were lysed with hypotonic lysis buffer (10 mM de KCl, 1 mM de MgCl2, 10 mM Hepes pH 7, 4 and protease inhibitor). Mechanic lysis of cells was realized with minimum 10 strokes of a 26G syringe. Samples were centrifuged 10 min at 3000 g to eliminate cellular fragments and nuclear fraction in the pellet. Then supernatant was centrifuged 45 min at 50 000 g. The pellets with cellular membrane were resolubilized in RIPA buffer.
Aliquots of membrane cell extracts (30 μg protein) were separated by 7% SDS-PAGE and transferred on PVDF membrane. The western blots were probed with mouse monoclonal antibodies specific for CFTR (MM13-4, Millipore) 2 h at room temperature.

SMILES: CC1=C(CC(=O)O)c2cc(F)ccc2/C1=C\c1ccc([S+](C)[O-])cc1 (centres unmarked) [sulindac, (Z)-5-fluoro-2-methyl-1-[p-(methylsulfinyl)benzylidene]-indene-3-acetic acid]
- AP-1 transcriptional activity induced by TNF [1]: causes a decrease in the induction
- degradation of cytosolic IκB induced by TNFα (IκB): did not modified this effect; also recorded: did not affect the degradation of IκB
- Ratio CFTR C/C + B (%) (CFTR; 250 μM): 77.7%
- Ratio CFTR C/C + B (%) (CFTR; 500 μM): 81.5%
- mature form of CFTR (Western blot) (CFTR; WT-CFTR HeLa cells, 500 μM): significant increase of mature form of CFTR
